The values below come from patent publication US6569842B2 (Board of Trustees of the University of Illinois, The, priority 2000, dated 2003).

Converted amounts (≈) assume the structure as drawn. Read-outs that look alike come from different tables or passages of the source.

The test system of one experiment is LU-1 (lung). Description: Cytotoxicity against cultured LU-1 cells (SRB). To be noted: Method A, sample dissolved in DMSO, three days incubation; for IC50: Homo sapiens, Lu1, 72 h, read-out: ED50 LU-1. It counts as cell-based, human. As for the experimental part:
(§1) Cytotoxicity of the crude extracts and purified compounds was determined in a number of cultured human cancer cell lines. Table 1 sets forth the various types of cancer cells evaluated using Method A. The cells were cultured in appropriate media and under standard conditions. To maintain logarithmic growth, the media were changed 24 hours prior to cytotoxic assays. On the day of the assay, the cells were harvested by trypsinization, counted, diluted in media, and added to 96-well plates containing test compounds dissolved in DMSO. The final DMSO concentration was 0.05%.
(§2) In each of Methods A-C, the plates were incubated for three days. Following the incubation period, the cells were fixed and stained with sulforhodamine B (SRB) dye. The bound dye was liberated with Tris base, and the OD515 (optical density at 515 nm) was measured on an ELISA reader. The growth of the betulinic acid-treated cells was determined by the OD515 values, and the growth was compared to the OD515 values of […] control cells of Methods A-C. Dose response studies were performed to generate ED50 values. As used herein, the term OD515 is defined as optical density at 515 nm, and the term ED50 is defined as the concentration of a compound required to reduce cell number by 50%.

Another experiment relates to LNCaP (prostate). In words: Cytotoxicity against cultured LNCaP cells (SRB). In kind it is cell-based, human. To be noted: Method A, sample dissolved in DMSO; three days incubation. The procedure: as §1, §2
The next experiment has as its system ZR-75-1 (breast). Description: Cytotoxicity against cultured ZR-75-1 cells (SRB). It counts as cell-based, human. To be noted: for IC50: Homo sapiens, ZR-75-1, 72 h, read-out: ED50 ZR 75-1. The procedure:
as §1, §2

In another experiment the test system is BC-1 (breast). Description: Cytotoxicity against cultured BC-1 cells (SRB). It counts as cell-based, human. The following applies: for IC50: Homo sapiens, BC1, 72 h, read-out: ED50 BC-1. The procedure: as §1
In each of Methods A-C, the plates were incubated for three days. Following the incubation period, the cells were fixed and stained with sulforhodamine B (SRB) dye. The bound dye was liberated with Tris base, and the OD515 (optical density at 515 nm) was measured on an ELISA reader. […] Dose response studies were performed to generate ED50 values. As used herein, the term OD515 is defined as optical density at 515 nm, and the term ED50 is defined as the concentration of a compound required to reduce cell number by 50%.

The test system of another experiment is A431 (squamous cells). In words: Cytotoxicity against cultured A431 cells (SRB). It counts as cell-based, human. To be noted: Method A, sample dissolved in DMSO; three days incubation. As for the experimental part:
as §1, §2

The next experiment has as its system HT-1080 (sarcoma). Description: Cytotoxicity against cultured HT-1080 cells (SRB). To be noted: Method A, sample dissolved in DMSO, three days incubation; for IC50: Homo sapiens, HT-1080, 72 h, read-out: ED50 HT-1080. It counts as cell-based, human. The procedure: as §1, §2
Another experiment deals with COL-2 (colon). In words: Cytotoxicity against cultured COL-2 cells (SRB). To be noted: for IC50: Homo sapiens, Col2, 72 h, read-out: ED50 COL-2. It counts as cell-based, human. As for the experimental part:
as §1, §2

A further experiment relates to U373 (glioma). Description: Cytotoxicity against cultured U373 cells (SRB). In kind it is cell-based, human. The following applies: Method A, sample dissolved in DMSO; three days incubation. The procedure: as §1, §2
Another experiment relates to MEL-2 (melanoma). Description: Cytotoxicity against cultured MEL-2 cells (SRB). It counts as cell-based, human. To be noted: for IC50: Homo sapiens, MEL2, 72 h, read-out: ED50 MEL-2. As for the experimental part: as §1, §2
The test system of experiment [1] is KB (human oral epidermoid carcinoma). In words: Cytotoxicity against cultured KB cells (SRB). To be noted: Method A, sample dissolved in DMSO; three days incubation. In kind it is cell-based. As for the experimental part: as §1, §2
Another experiment has as its system a variety of tumors. To be noted: Phase II trials in Japan; cited from earlier work.
Setting [2] is: Method A, sample dissolved in DMSO, three days incubation.

With `COC(=O)C[C@](O)(CCCC(C)(C)O)C(=O)O[C@@H]1C(OC)=C[C@]23CCCN2CCc2cc4c(cc2[C@H]13)OCO4` [Homoharringtonine], the IC50 with LU-1 (lung) was found to be 0.03 µg/mL (≈ 0.055 µM); with ZR-75-1 (breast) (setting [2]), 0.06 µg/mL (≈ 0.11 µM); with BC-1 (breast) (setting [2]), 0.03 µg/mL (≈ 0.055 µM); in the experiment on HT-1080 (sarcoma), 0.01 µg/mL (≈ 0.0183 µM); with COL-2 (colon) (setting [2]), 0.1 µg/mL (≈ 0.183 µM); in the experiment with MEL-2 (melanoma) (setting [2]) it was 0.04 µg/mL (≈ 0.0733 µM). The “ED50 LNCaP” value in the experiment with LNCaP (prostate) came out at 0.03 µg/mL (≈ 0.055 µM). Further, the “ED50 A431” value in the experiment on A431 (squamous cells) was determined as 0.02 µg/mL (≈ 0.0367 µM). In addition, in the experiment with U373 (glioma), the “ED50 U373” value is 0.2 µg/mL (≈ 0.367 µM).
With `CC(=O)O[C@H]1C(=O)[C@@]2(C)[C@H]([C@H](OC(=O)c3ccccc3)[C@]3(O)C[C@H](OC(=O)[C@H](O)[C@@H](NC(=O)c4ccccc4)c4ccccc4)C(C)=C1C3(C)C)[C@]1(OC(C)=O)CO[C@@H]1C[C@@H]2O` [Taxol, paclitaxel], in the experiment on LNCaP (prostate), the “ED50 LNCaP” value is 0.02 µg/mL (≈ 0.0234 µM). Moreover, the IC50 in the experiment with ZR-75-1 (breast) (setting [2]) was 0.02 µg/mL (≈ 0.0234 µM); with BC-1 (breast) (setting [2]), 0.02 µg/mL (≈ 0.0234 µM); in the experiment on COL-2 (colon) (setting [2]) it was 0.02 µg/mL (≈ 0.0234 µM); with MEL-2 (melanoma) (setting [2]) it was 0.06 µg/mL (≈ 0.0703 µM). Moreover, the “ED50 U373” value with U373 (glioma) worked out at 0.008 µg/mL (≈ 0.00937 µM). The “ED50 KB” value in [1] was 0.02 µg/mL (≈ 0.0234 µM).
In the case of `CC[C@@]1(O)C(=O)OCc2c1cc1n(c2=O)Cc2cc3ccccc3nc2-1` [Camptothecin], the “ED50 LNCaP” value in the experiment with LNCaP (prostate) was 0.006 µg/mL (≈ 0.0172 µM). Also, the IC50 in the experiment on ZR-75-1 (breast) (setting [2]) worked out at 0.001 µg/mL (≈ 0.00287 µM); with BC-1 (breast) (setting [2]), 0.07 µg/mL (≈ 0.201 µM); in the experiment with HT-1080 (sarcoma), 0.01 µg/mL (≈ 0.0287 µM); with COL-2 (colon) (setting [2]), 0.005 µg/mL (≈ 0.0144 µM); with MEL-2 (melanoma) (setting [2]), 0.02 µg/mL (≈ 0.0574 µM).
As for `COc1cc([C@@H]2c3cc4c(cc3[C@H](O)[C@H]3COC(=O)[C@H]23)OCO4)cc(OC)c1OC` [Podophyllotoxin], the “ED50 LNCaP” value in the experiment on LNCaP (prostate) stood at 0.04 µg/mL (≈ 0.0965 µM). Moreover, the IC50 in the experiment with ZR-75-1 (breast) was found to be 0.4 µg/mL (≈ 0.965 µM); in the experiment with BC-1 (breast), 0.03 µg/mL (≈ 0.0724 µM); in the experiment with COL-2 (colon), 0.005 µg/mL (≈ 0.0121 µM); with MEL-2 (melanoma) it was 0.003 µg/mL (≈ 0.00724 µM). Besides, the “ED50 A431” value with A431 (squamous cells) was 0.03 µg/mL (≈ 0.0724 µM). The “ED50 U373” value in the experiment with U373 (glioma) worked out at 0.004 µg/mL (≈ 0.00965 µM). The “ED50 KB” value in experiment [1] stood at 0.08 µg/mL (≈ 0.193 µM).
With `Cc1c2ccncc2c(C)c2c1[nH]c1ccccc12` [Ellipticine], the IC50 came out at 0.02 µg/mL (≈ 0.0812 µM) with LU-1 (lung); 0.9 µg/mL (≈ 3.65 µM) in the experiment on ZR-75-1 (breast) (setting [2]); 0.2 µg/mL (≈ 0.812 µM) in the experiment on BC-1 (breast) (setting [2]); 1.8 µg/mL (≈ 7.31 µM) with HT-1080 (sarcoma); 0.3 µg/mL (≈ 1.22 µM) in the experiment with COL-2 (colon) (setting [2]); 0.9 µg/mL (≈ 3.65 µM) in the experiment on MEL-2 (melanoma) (setting [2]). In addition, the “ED50 LNCaP” value in the experiment on LNCaP (prostate) is 0.8 µg/mL (≈ 3.25 µM). In the experiment on A431 (squamous cells), the “ED50 A431” value stood at 0.5 µg/mL (≈ 2.03 µM). In addition, the “ED50 U373” value with U373 (glioma) was 1.6 µg/mL (≈ 6.5 µM). Also, in experiment [1], the “ED50 KB” value was 0.04 µg/mL (≈ 0.162 µM).
For the molecule Mithramycin A, in the experiment on LU-1 (lung), the “ED50 LU-1” value was 0.2 µg/mL. Also, the “ED50 LNCaP” value in the experiment with LNCaP (prostate) worked out at 0.05 µg/mL. In addition, the “ED50 ZR 75-1” value in the experiment on ZR-75-1 (breast) (setting [2]) stood at 0.2 µg/mL. In addition, in the experiment on BC-1 (breast) (setting [2]), the “ED50 BC-1” value is 0.3 µg/mL. Further, the “ED50 A431” value in the experiment with A431 (squamous cells) is 0.09 µg/mL. Also, the “ED50 HT-1080” value in the experiment on HT-1080 (sarcoma) came to 1.5 µg/mL. Besides, in the experiment with COL-2 (colon) (setting [2]), the “ED50 COL-2” value was determined as 0.06 µg/mL. For the same molecule, in the experiment with U373 (glioma), the “ED50 U373” value is 0.04 µg/mL. The “ED50 KB” value in experiment [1] came to 0.09 µg/mL. The “ED50 MEL-2” value in the experiment on MEL-2 (melanoma) (setting [2]) came to 1.2 µg/mL.
On to `CCc1c2c(nc3ccc(OC(=O)N4CCC(N5CCCCC5)CC4)cc13)-c1cc3c(c(=O)n1C2)COC(=O)[C@]3(O)CC` [irinotican], for which, in the experiment on a variety of tumors, the “response rate, lymphoma” value was 0% and the “response rate, small cell lung” value is 50%.
For `CC[C@]1(O)C[C@H]2CN(CCc3c([nH]c4ccccc34)[C@@](C(=O)OC)(c3cc4c(cc3OC)N(C=O)[C@H]3[C@@](O)(C(=O)OC)[C@H](OC(C)=O)[C@]5(CC)C=CCN6CC[C@]43[C@@H]65)C2)C1` [Vincristine], the IC50 in the experiment with LU-1 (lung) stood at 0.05 µg/mL (≈ 0.0606 µM); with ZR-75-1 (breast) (setting [2]) it was 0.4 µg/mL (≈ 0.485 µM); with BC-1 (breast) (setting [2]), 0.01 µg/mL (≈ 0.0121 µM); in the experiment on HT-1080 (sarcoma), 0.02 µg/mL (≈ 0.0242 µM); in the experiment on COL-2 (colon) (setting [2]) it was 0.02 µg/mL (≈ 0.0242 µM); in the experiment on MEL-2 (melanoma) (setting [2]), 0.02 µg/mL (≈ 0.0242 µM). For the same molecule, the “ED50 LNCaP” value in the experiment with LNCaP (prostate) was found to be 0.1 µg/mL (≈ 0.121 µM). Besides, the “ED50 A431” value in the experiment on A431 (squamous cells) is 0.01 µg/mL (≈ 0.0121 µM). Further, in the experiment with U373 (glioma), the “ED50 U373” value is 0.06 µg/mL (≈ 0.0727 µM).
Take `CC[C@]1(O)C[C@@H]2CN(CCc3c([nH]c4ccccc34)[C@@](C(=O)OC)(c3cc4c(cc3OC)N(C)[C@H]3[C@@](O)(C(=O)OC)[C@H](OC(C)=O)[C@]5(CC)C=CCN6CC[C@]43[C@@H]65)C2)C1` [Vinblastine]: the IC50 in the experiment with LU-1 (lung) turned out to be 0.02 µg/mL (≈ 0.0247 µM); in the experiment on ZR-75-1 (breast) (setting [2]), 0.3 µg/mL (≈ 0.37 µM); in the experiment with BC-1 (breast) (setting [2]), 0.06 µg/mL (≈ 0.074 µM); in the experiment with HT-1080 (sarcoma), 0.02 µg/mL (≈ 0.0247 µM); in the experiment on COL-2 (colon) (setting [2]), 0.01 µg/mL (≈ 0.0123 µM); in the experiment on MEL-2 (melanoma) (setting [2]), 0.01 µg/mL (≈ 0.0123 µM). Besides, the “ED50 LNCaP” value in the experiment with LNCaP (prostate) worked out at 0.1 µg/mL (≈ 0.123 µM). Also, the “ED50 A431” value in the experiment on A431 (squamous cells) was 0.05 µg/mL (≈ 0.0617 µM). The “ED50 U373” value in the experiment on U373 (glioma) came out at 1.1 µg/mL (≈ 1.36 µM). Besides, the “ED50 KB” value in [1] stood at 0.04 µg/mL (≈ 0.0493 µM).
